Experimental data as given in patent US7381824B2 (Agouron Pharmaceuticals, Inc., priority 2003, dated 2008).
Like-named read-outs stand apart in the source and are kept apart here.

Experiments:
[1] = target: T1, human vascular endothelial growth factor receptor 2 (VEGF-R2) (Homo sapiens, UniProt P35968, DEL940-989/E990V); experiment: VEGF-R2 coupled spectrophotometric assay (FLVK, unphosphorylated VEGF-R2D50); format: biochemical
T1 construct: VEGF-R2D50 contains residues 806-939 and 990-1171; made in house; host or cells: baculovirus/insect cell system
Outline: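 Unphosphorylated VEGF-R2D50 (residues 806-939/990-1171, E990V; baculovirus-expressed), 5 to 40 nM, with 20 mM poly(E4Y1), 3 mM ATP, 60 mM MgCl2 and 2 mM MnCl2 in 200 mM HEPES pH 7.5. ADP formation coupled via PK/LDH to NADH oxidation (A340). Ki fitted by Morrison equation; % inhibition at 50 nM from linear regression of absorbance versus time.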

human FGF-R1 = target: T2, human FGF-R1 (Homo sapiens, UniProt P11362, C488A/C584S/L457V); experiment: FGF-R spectrophotometric assay; format: biochemical
T2 construct: starting from the endogenous methionine residue 456 to glutamate 766; made in house; host or cells: baculovirus vector expression system
Description: The intracellular kinase domain of human FGF-R1 was expressed using the baculovirus vector expression system starting from the endogenous methionine residue 456 to glutamate 766, according to the residue numbering system of Mohammadi et al., Mol. Cell. Biol., 16, 977-989 (1996). In addition, the construct also has the following 3 amino acid substitutions: L457V, C488A, and C584S.
The spectrophotometric assay was carried out as described above for VEGF-R2, except for the following changes in concentration: FGF-R=50 nM, ATP=2 mM, and poly(E4Y1)=15 mM.

T1 sequence (P35968 with tags, fused parts or gaps DEL940-989/E990V limits assumed): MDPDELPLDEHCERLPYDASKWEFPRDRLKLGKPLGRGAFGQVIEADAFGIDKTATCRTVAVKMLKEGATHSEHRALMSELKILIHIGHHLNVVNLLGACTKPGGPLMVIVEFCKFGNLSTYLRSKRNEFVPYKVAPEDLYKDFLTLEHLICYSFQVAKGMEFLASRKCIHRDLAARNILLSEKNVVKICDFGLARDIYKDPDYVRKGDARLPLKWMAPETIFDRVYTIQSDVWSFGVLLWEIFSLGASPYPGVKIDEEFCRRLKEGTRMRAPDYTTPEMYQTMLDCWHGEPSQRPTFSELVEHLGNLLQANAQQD
T2 sequence (P11362 456-766 L457V/C488A/C584S): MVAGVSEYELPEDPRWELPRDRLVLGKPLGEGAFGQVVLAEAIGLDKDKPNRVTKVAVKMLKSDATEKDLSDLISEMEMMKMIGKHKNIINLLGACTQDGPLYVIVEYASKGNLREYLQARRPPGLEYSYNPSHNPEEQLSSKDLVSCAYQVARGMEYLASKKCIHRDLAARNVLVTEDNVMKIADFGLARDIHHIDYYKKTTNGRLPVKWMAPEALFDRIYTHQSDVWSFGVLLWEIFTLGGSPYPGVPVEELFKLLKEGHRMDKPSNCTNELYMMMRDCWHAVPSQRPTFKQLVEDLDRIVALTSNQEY

Ki [1]: 32 nM
Ki ([1]; unphosphorylated VEGF-R2D50 (FLVK)): > 10 nM
inhibition at 1 µM (human FGF-R1): 38%
SMILES: Cc1cc2ccc(Oc3ccnc4cc(OCCN5CCOCC5)ccc34)cc2o1 [Example 126, 4-(2-Methyl-benzofuran-6-yloxy)-7-(2-morpholin-4-yl-ethoxy)-quinoline]
